Tests used:
[1] = tested on: MRC5 lung fibroblast cells; assay: Selective toxicity, CCK-8 assay, non-malignant MRC5 lung fibroblasts; type: cell-based; conditions: for IC50: Homo sapiens, non-malignant MRC5 lung fibroblasts, 48 h exposure, CCK-8
Description: (§1) In vitro cytotoxicity of the phosphorated aspartic acid derivatives was evaluated by testing their antiproliferative activities against several human cancer cell lines. Cell counting kit (CCK-8) assay was used for the evaluation of growth inhibition. […] In addition, trisubstituted aminophosphonate 9a (Imine precursor, R^1 = H, R^2 = P(O)(OMe)2) and tetrasubstituted aminophosphonate 18 (R^1 = Me, R^2 = P(O)(OMe)2) are used as templates in order to evaluate the effect of the substituents (Table 1).
(§2) Human epithelial lung carcinoma cells (A549) (ATCC® CCL-185™, ATCC, Manassas, VA, USA) were grown in Kaighn’s Modification of Ham’s F-12 Medium (ATCC® 30-2004™, ATCC, Manassas, VA, USA) and lung fibroblast cells (MRC5) (ATCC® CCL-171™, ATCC, Manassas, VA, USA) were grown in Eagle’s Minimum Essential Medium (EMEM, ATCC® 30-2003™, ATCC, Manassas, VA, USA). Epithelial ovary adenocarcinoma cells (SKOV3) (ATCC® HTB-77™, ATCC, Manassas, VA, USA) were grown in McCoy’s 5A medium (ATCC® 30-2007™, ATCC, Manassas, VA, USA). All of them were supplemented with 10% of fetal bovine serum (FBS) (Sigma-Aldrich, Madrid, Spain) and with 1% of NORMOCIN solution (Thermo Fisher, Waltham, MA, USA). Cells were incubated at 37 °C and 5% CO2 atmosphere, and were split every 3–4 days to maintain monolayer coverage. For the cytotoxicity experiments, the A549 and SKOV3 cells were seeded in 96-well plates at a density of 2.5–3 × 10^3 cells per well and incubated overnight to achieve 70% of confluence at the time of exposition to the cytotoxic compound.
(§3) Cells were exposed to different concentrations of the cytotoxic compounds and were incubated for 48 h. Then, 10 µL of cell counting kit-8 was added into each well for an additional two hours’ incubation at 37 °C. The absorbance of each well was determined by an Automatic Elisa Reader System (Thermo Scientific Multiskan FC Automatic Elisa Reader System, Thermo Scientific, Shanghai, China) at 450 nm wavelength.

[2] = tested on: SKOV3 (human ovarian carcinoma) cells; assay: In vitro cytotoxicity (antiproliferative activity), CCK-8 assay, SKOV3; type: cell-based; conditions: for IC50: Homo sapiens, SK-OV-3, 48 h exposure, CCK-8
Description: as §1, §2, §3

[3] = tested on: A549 (carcinomic human alveolar basal epithelial) cells; assay: In vitro cytotoxicity (antiproliferative activity), CCK-8 assay, A549; type: cell-based; conditions: for IC50: 48 h exposure, CCK-8
Description: as §1, §2, §3

CCOC(=O)CC(NS(=O)(=O)c1ccc(C)cc1)(c1ccccc1)P(=O)(OC)OC (centres unmarked) [7a, Ethyl 3-(dimethoxyphosphoryl)-3-((4-methylphenyl)sulfonamido)-3-phenylpropanoate] showed an IC50 [1] greater than 50 µM, a melting point of 98 to 99 °C and an IC50 [2] greater than 50 µM. For the same compound, the IC50 ([3]; Homo sapiens, A549, 48 h) was 2.66 ± 0.26 µM.

With CCOC(=O)CC(NS(=O)(=O)c1ccc(C)cc1)(c1ccc(C)cc1)P(=O)(OC)OC (centres unmarked) [7b, Ethyl 3-(dimethoxyphosphoryl)-3-((4-methylphenyl)sulfonamido)-3-(p-tolyl)propanoate] the IC50 [1] was 29.6 ± 2.98 µM, the “toxicity toward MRC5 non-malignant cells (in words)” value [1] was “some toxicity” and the melting point was 117 to 118 °C. For the same compound, the “cytotoxicity against SKOV3 cell line (in words)” value [2] was “no activity”, the IC50 [2] was greater than 50 µM and the IC50 ([3]; Homo sapiens, A549, 48 h) was 0.34 ± 0.04 µM.

For CCOC(=O)CC(NS(=O)(=O)c1ccc(C)cc1)(c1cccc(C)c1)P(=O)(OC)OC (centres unmarked) [7c, Ethyl 3-(dimethoxyphosphoryl)-3-((4-methylphenyl)sulfonamido)-3-(m-tolyl)propanoate], the IC50 [1] was greater than 50 µM, the melting point was 103 to 104 °C and the “cytotoxicity against SKOV3 cell line (in words)” value [2] was “no activity”. It also gave an IC50 [2] greater than 50 µM and an IC50 ([3]; Homo sapiens, A549, 48 h) of 2 ± 0.52 µM.

For CCOC(=O)CC(NS(=O)(=O)c1ccc(C)cc1)(c1ccc(SC(Cl)(Cl)Cl)cc1)P(=O)(OC)OC (centres unmarked) [7d, Ethyl 3-(dimethoxyphosphoryl)-3-((4-methylphenyl)sulfonamido)-3-(4-((trichloromethyl)thio)phenyl)propanoate], the IC50 [1] was 2.47 ± 0.3 µM, the melting point was 123 to 124 °C and the IC50 [2] was 6.43 ± 0.64 µM. The IC50 ([3]; Homo sapiens, A549, 48 h) was 4.41 ± 0.29 µM.

For CCOC(=O)CC(NS(=O)(=O)c1ccc(C)cc1)(c1ccc(Br)cc1)P(=O)(OC)OC (centres unmarked) [7e, Ethyl 3-(4-bromophenyl)-3-(dimethoxyphosphoryl)-3-((4-methylphenyl)sulfonamido)propanoate], the IC50 [1] was greater than 50 µM, the melting point was 138 to 139 °C and the IC50 [2] was greater than 50 µM. For the same compound, the IC50 ([3]; Homo sapiens, A549, 48 h) was 1.08 ± 0.09 µM.

CCOC(=O)CC(NS(=O)(=O)c1ccc(C)cc1)(c1ccc(Cl)cc1)P(=O)(OC)OC (centres unmarked) [7f, Ethyl 3-(4-chlorophenyl)-3-(dimethoxyphosphoryl)-3-((4-methylphenyl)sulfonamido)propanoate] showed an IC50 [1] greater than 50 µM, a melting point of 133 to 134 °C and an IC50 [2] of 24.1 ± 1.45 µM. The IC50 ([3]; Homo sapiens, A549, 48 h) was 3.09 ± 0.14 µM.

In the case of CCOC(=O)CC(NS(=O)(=O)c1ccc(C)cc1)(c1cccc(Cl)c1)P(=O)(OC)OC (centres unmarked) [7g, Ethyl 3-(3-chlorophenyl)-3-(dimethoxyphosphoryl)-3-((4-methylphenyl)sulfonamido)propanoate], the IC50 [1] is reported as 38.1 ± 1.61 µM, the “toxicity toward MRC5 non-malignant cells (in words)” value [1] is reported as “toxic against the healthy cells” and the melting point is reported as 88 to 89 °C. For the same compound, the IC50 [2] was greater than 50 µM and the IC50 ([3]; Homo sapiens, A549, 48 h) was 2.96 ± 0.34 µM.

For CCOC(=O)CC(NS(=O)(=O)c1ccc(C)cc1)(c1ccc(Cl)c(Cl)c1)P(=O)(OC)OC (centres unmarked) [7h, Ethyl 3-(3,4-dichlorophenyl)-3-(dimethoxyphosphoryl)-3-((4-methylphenyl)sulfonamido)propanoate], the IC50 [1] was 11.3 ± 1.16 µM, the melting point was 109 to 110 °C and the IC50 [2] was 6.94 ± 0.63 µM. For the same compound, the IC50 ([3]; Homo sapiens, A549, 48 h) was 1.05 ± 0.42 µM.

CCOC(=O)CC(NS(=O)(=O)c1ccc(C)cc1)(c1ccc(OC)c(Cl)c1)P(=O)(OC)OC (centres unmarked) [7i, Ethyl 3-(3-chloro-4-methoxyphenyl)-3-(dimethoxyphosphoryl)-3-((4-methylphenyl)sulfonamido)propanoate] gave an IC50 [1] greater than 50 µM, a melting point of 153 to 154 °C and an IC50 [2] greater than 50 µM. The IC50 ([3]; Homo sapiens, A549, 48 h) was 1.44 ± 0.15 µM.

CCOC(=O)CC(NS(=O)(=O)c1ccc(C)cc1)(c1ccc(F)cc1)P(=O)(OC)OC (centres unmarked) [7j, Ethyl 3-(dimethoxyphosphoryl)-3-(4-fluorophenyl)-3-((4-methylphenyl)sulfonamido)propanoate] showed an IC50 [1] greater than 50 µM, a melting point of 111 to 112 °C and an IC50 [2] greater than 50 µM. For the same compound, the IC50 ([3]; Homo sapiens, A549, 48 h) was 7.15 ± 0.24 µM.

With CCOC(=O)CC(NS(=O)(=O)c1ccc(C)cc1)(c1cccc(F)c1)P(=O)(OC)OC (centres unmarked) [7k, Ethyl 3-(dimethoxyphosphoryl)-3-(3-fluorophenyl)-3-((4-methylphenyl)sulfonamido)propanoate] the IC50 [1] was greater than 50 µM, the melting point was 111 to 112 °C and the IC50 [2] was greater than 50 µM. The IC50 [3] was 0.59 ± 0.09 µM and the IC50 ([3]; Homo sapiens, A549, 48 h) was 0.34 µM.

Work on CCOC(=O)CC(NS(=O)(=O)c1ccc(C)cc1)(c1ccccc1F)P(=O)(OC)OC (centres unmarked) [7l, Ethyl 3-(dimethoxyphosphoryl)-3-(2-fluorophenyl)-3-((4-methylphenyl)sulfonamido)propanoate] yielded an IC50 [1] greater than 50 µM, a melting point of 140 to 141 °C and an IC50 [2] greater than 50 µM. For the same compound, the IC50 ([3]; Homo sapiens, A549, 48 h) was 0.9 ± 0.12 µM.

CCOC(=O)CC(NS(=O)(=O)c1ccc(C)cc1)(c1ccc(F)cc1F)P(=O)(OC)OC (centres unmarked) [7m, Ethyl 3-(2,4-difluorophenyl)-3-(dimethoxyphosphoryl)-3-((4-methylphenyl)sulfonamido)propanoate] gave an IC50 [1] greater than 50 µM, a melting point of 135 to 136 °C and an IC50 [2] greater than 50 µM. The IC50 ([3]; Homo sapiens, A549, 48 h) was 2.24 ± 0.31 µM.

CCOC(=O)CC(NS(=O)(=O)c1ccc(C)cc1)(c1ccc(F)c(F)c1)P(=O)(OC)OC (centres unmarked) [7n, Ethyl 3-(3,4-difluorophenyl)-3-(dimethoxyphosphoryl)-3-((4-methylphenyl)sulfonamido)propanoate] showed an IC50 [1] greater than 50 µM, a melting point of 98 to 99 °C and an IC50 [2] greater than 50 µM. The IC50 ([3]; Homo sapiens, A549, 48 h) was 5.7 ± 0.7 µM.

Compound CCOC(=O)CC(NS(=O)(=O)c1ccc(C)cc1)(c1c(F)c(F)c(F)c(F)c1F)P(=O)(OC)OC (centres unmarked) [7o, Ethyl 3-(dimethoxyphosphoryl)-3-((4-methylphenyl)sulfonamido)-3-(perfluorophenyl)propanoate] has an IC50 [1] greater than 50 µM, an IC50 [2] of 20.5 ± 2.75 µM and an IC50 ([3]; Homo sapiens, A549, 48 h) of 3.65 ± 0.21 µM.

In the case of CCOC(=O)CC(NS(=O)(=O)c1ccc(C)cc1)(c1ccc(C(F)(F)F)cc1)P(=O)(OC)OC (centres unmarked) [7p, Ethyl 3-(dimethoxyphosphoryl)-3-((4-methylphenyl)sulfonamido)-3-(4-(trifluoromethyl)phenyl)propanoate], the IC50 [1] is reported as greater than 50 µM, the “toxicity toward MRC5 non-malignant cells (in words)” value [1] is reported as “no toxicity” and the melting point is reported as 114 to 115 °C. For the same compound, the IC50 [2] was 9.8 ± 0.6 µM and the IC50 ([3]; Homo sapiens, A549, 48 h) was 20.3 ± 1.14 µM.

COP(=O)(OC)C(NS(=O)(=O)c1ccc(C)cc1)c1ccccc1 (centres unmarked) [9a] showed an IC50 [1] greater than 50 µM, an IC50 [2] greater than 50 µM and an IC50 ([3]; Homo sapiens, A549, 48 h) of 17.6 ± 1.3 µM.

In the case of COP(=O)(OC)C(CC(=O)OCc1ccccc1)(NS(=O)(=O)c1ccc(C)cc1)c1cccc(F)c1 (centres unmarked) [13a, Benzyl 3-(dimethoxyphosphoryl)-3-(3-fluorophenyl)-3-((4-methylphenyl)sulfonamido)propanoate], the melting point is reported as 78 to 79 °C, the “cytotoxicity against SKOV3 cell line (in words)” value [2] is reported as “no toxicity” and the IC50 [2] is reported as greater than 50 µM. It also gave an IC50 ([3]; Homo sapiens, A549, 48 h) of 12.8 ± 2.38 µM.

CCOC(=O)C[C@](NS(=O)(=O)c1ccc(C)cc1)(c1cccc(F)c1)P(=O)(OC)OC [(R)-7k] showed an IC50 ([3]; Homo sapiens, A549, 48 h) of 1.61 ± 0.2 µM.

With CCOC(=O)C[C@@](NS(=O)(=O)c1ccc(C)cc1)(c1cccc(F)c1)P(=O)(OC)OC [(S)-7k] the IC50 ([3]; Homo sapiens, A549, 48 h) was 1.56 ± 0.39 µM.

Work on COc1cccc2c1C(=O)c1c(O)c3c(c(O)c1C2=O)C[C@@](O)(C(=O)CO)C[C@@H]3O[C@H]1C[C@H](N)[C@H](O)[C@H](C)O1 [Doxorubicin, reference compound] yielded an IC50 ([3]; Homo sapiens) of less than 0.1 µM.

Compound CCOC(=O)CC(NS(=O)(=O)c1ccc(C)cc1)c1ccccc1 (centres unmarked) [compound 5, Ethyl 3-((4-methylphenyl)sulfonamido)-3-phenylpropanoate] has an IC50 [1] greater than 50 µM, an IC50 [2] greater than 50 µM and an IC50 ([3]; Homo sapiens) of 18.7 ± 2.16 µM.

CCOC(=O)CC(NS(=O)(=O)c1ccc(C)cc1)(C(=O)OCC)c1ccccc1 (centres unmarked) [compound 6, Diethyl 2-((4-methylphenyl)sulfonamido)-2-phenylsuccinate] showed an IC50 [1] greater than 50 µM, an IC50 [2] greater than 50 µM and an IC50 ([3]; Homo sapiens) of 14.2 ± 0.41 µM.

For COC(=O)CC(NS(=O)(=O)c1ccc(C)cc1)(c1cccc(F)c1)P(=O)(OC)OC (centres unmarked) [compound 12, Methyl 3-(dimethoxyphosphoryl)-3-(3-fluorophenyl)-3-((4-methylphenyl)sulfonamido)propanoate], the melting point was 115 to 116 °C, the “cytotoxicity against SKOV3 cell line (in words)” value [2] was “no toxicity” and the IC50 [2] was greater than 50 µM. The IC50 ([3]; Homo sapiens, A549, 48 h) was 24.1 ± 4.01 µM.

COP(=O)(OC)C(CC(=O)O)(NS(=O)(=O)c1ccc(C)cc1)c1ccccc1 (centres unmarked) [compound 14, 3-(Dimethoxyphosphoryl)-3-((4-methylphenyl)sulfonamido)-3-phenylpropanoic acid] showed an IC50 [1] greater than 50 µM, an IC50 [2] greater than 50 µM and an IC50 ([3]; Homo sapiens, A549, 48 h) of 20.6 ± 1.05 µM.

For COP(=O)(OC)C(C)(NS(=O)(=O)c1ccc(C)cc1)c1ccccc1 (centres unmarked) [compound 18, Dimethyl (1-((4-methylphenyl)sulfonamido)-1-phenylethyl)phosphonate], the IC50 [2] was greater than 50 µM, the “cytotoxicity against A549 cell line (in words)” value [3] was “no cytotoxicity” and the IC50 ([3]; Homo sapiens, A549, 48 h) was greater than 50 µM.
